Experimental data reported in patent publication US12691109B2, “Bifunctional aggregation-induced emission luminogen for monitoring and killing of multidrug-resistant bacteria” (The Hong Kong University of Science and Technology, priority 2018, dated 2026).

How the values were obtained:
Type in all cases: cell-based
[1] = system: K. pneumoniae; experiment: Bacteria staining with TriPE-NT and PI, CLSM; details: 10 min
Description: (§1) FIG. 21B is a graph plotting stained percentages for E. coli, MDR E. coli, K. pneumoniae, MDR K. pneumoniae, S. epidermidis, MDR S. epidermidis, S. aureus, and MDR S. aureus.
(§2) FIG. 21C is a graph plotting percentage of dead bacteria stained by propidium iodine (PI) after the bacteria were incubated with 10 μM of TriPE-NT or PI for 10 min.
(§3) TriPE-NT: Ex=405 nm, Em=500-560 nm; PI: Ex=514, Em=600-700. The scale bar is equal to 5 μm.
(§4) To indicate the status of the bacteria after TriPE-NT treatment, the bacteria was incubated with commercial dead bacteria-staining fluorescent reagent propidium iodide (PI) and TriPE-NT at the same time. Thanks to the AIE characteristics and water solubility of TriPE-NT, there was almost no background fluorescence in the imaging field. E. coli and S. epidermidis, which emitted bright orange (TriPE-NT) or red (PI) fluorescence, are clearly visualized under confocal laser scanning microscope (CLSM) (FIG. 21A-C, 22-23). […] In comparison, relatively low percentage of Gram-negative bacteria were stained by TriPE-NT (e.g., 88.1±9.8% E. coli, 84.3±12.7% MDR E. coli, 47.9±7.7% K. pneumoniae and 35.8±4.9% MDR K. pneumoniae) (FIG. 21B, FIG. 22). […] By contrast, relatively low percentages of E. coli (22.1±12.2% E. coli) were co-stained by both TriPE-NT and PI (FIGS. 21A, C), which is also similar to other Gram-negative bacteria (15.3±3.7%, MDR E. coli, 8.8±3.2%, K. pneumoniae and 6.4±2.6% MDR K. pneumoniae) (FIGS. 21A & C, 22). The reason for this difference possibly is ascribed to the extra membrane of Gram-negative bacteria which is absent in Gram-positive bacteria. These observations also illustrated that both Gram-negative bacteria and Gram-positive bacteria are vulnerable to TriPE-NT treatment, the possible reason is that these bacteria with negatively charged membranes, could anchor, uptake, and aggregate the positively charged probe, which restricts the intramolecular motion of the probe and causes their fluorescence emission.

[2] = system: MDR E. coli; experiment: Bacteria staining with TriPE-NT and PI, CLSM; details: 10 min
Description: as §1, §2, §3, §4

[3] = system: MDR K. pneumoniae; experiment: Bacteria staining with TriPE-NT and PI, CLSM; details: 10 min
Description: as §1, §2, §3, §4

[4] = system: E. coli; experiment: Bacteria staining with TriPE-NT and PI, CLSM; details: 10 min
Description: (§5) TriPE-NT: Ex, 405 nm, Em, 500-560 nm; PI: Ex, 514 nm, Em, 600-700 nm.
as §1, §2, §4

[5] = system: S. epidermidis; experiment: Bacteria staining with TriPE-NT and PI, CLSM; details: 10 min
Description: as §5, §1, §2, §4

[6] = system: MDR S. aureus; experiment: Bacteria staining with TriPE-NT and PI, CLSM; details: 10 min
Description: as §1, §2
(§6) TriPE-NT: Ex=405 nm, Em=500-560 nm; PI: Ex=514, Em=600-700.
as §4

[7] = system: MDR S. epidermidis; experiment: Bacteria staining with TriPE-NT and PI, CLSM; details: 10 min
Description: as §1, §2, §6, §4

[8] = system: S. aureus; experiment: Bacteria staining with TriPE-NT and PI, CLSM; details: 10 min
Description: as §1, §2, §6, §4

[9] = system: E. coli; experiment: Morphological changes of bacteria by FE-SEM and FEHR-TEM
Description: (§7) FIGS. 24A-E show images of TriPE-NT-induced morphological changes of E. coli, MDR E. coli, S. epidermidis and MDR S. epidermidis with white light irradiation by FE-SEM and FEHR-TEM, bacteria without treatment were set as controls. […] FIG. 24D is a graph plotting elemental curve measured on the super-thin slices of TriPE-NT-treated E. coli from the region marked by the rectangle in FIG. 24C. FIG. 24 E is a graph plotting the elemental curve measured on the super-thin slices of TriPE-NT-treated S. epidermidis from the region marked by rectangle in FIG. 24C.
(§8) To gain more insights into the TriPE-NT-bacteria interactions, FE-SEM and field-emission high resolution transmission electron microscope (FEHR-TEM) were used to visualize the morphological changes of the bacteria under TriPE-NT treatment, selecting E. coli (G−), MDR E. coli (G−), and S. epidermidis (G+), MDR S. epidermidis (G+) as representatives.

[10] = system: MDR E. coli; experiment: as above
Description: as §7, §8

[11] = system: MDR S. epidermidis; experiment: as above; details: TriPE-NT without or with light irradiation (4 mW cm^−2, 30 min)
Description: as §7, §8

[12] = system: S. epidermidis; experiment: as above; details: TriPE-NT without or with light irradiation (4 mW cm^−2, 30 min)
Description: as §7, §8

[13] = TriPE-NT in the absence of white light
[14] = TriPE-NT with light irradiation

## COc1ccc(C(=Cc2ccc(-c3ccc4c5c(cccc35)C(=O)N(CCCCn3c[n+](Cc5ccc(F)cc5F)cn3)C4=O)cc2)c2ccc(OC)cc2)cc1 [TriPE-NT]
[1]; 10 μM TriPE-NT and PI
  percentage of K. pneumoniae co-stained by TriPE-NT and PI (dead bacteria): 8.8±3.2%
[1]; 10 μM
  percentage of K. pneumoniae stained by TriPE-NT: 47.9±7.7%
[2]; 10 μM TriPE-NT and PI
  percentage of MDR E. coli co-stained by TriPE-NT and PI (dead bacteria): 15.3±3.7%
[2]; 10 μM
  percentage of MDR E. coli stained by TriPE-NT: 84.3±12.7%
[3]; 10 μM TriPE-NT and PI
  percentage of MDR K. pneumoniae co-stained by TriPE-NT and PI (dead bacteria): 6.4±2.6%
[3]; 10 μM
  percentage of MDR K. pneumoniae stained by TriPE-NT: 35.8±4.9%
[4]; 10 μM TriPE-NT and PI
  percentage of E. coli co-stained by TriPE-NT and PI (dead bacteria): 22.1±12.2%
[4]; 10 μM
  percentage of E. coli stained by TriPE-NT: 88.1±9.8%
[5]; 10 μM TriPE-NT and PI
  percentage of S. epidermidis co-stained by TriPE-NT and PI (dead bacteria): 80.9±15.8%
[5]; 10 μM
  percentage of S. epidermidis stained by TriPE-NT: 96.2±5.6%
[6]; 10 μM TriPE-NT and PI
  percentage of MDR S. aureus co-stained by TriPE-NT and PI (dead bacteria): 57.4±1.3%
[6]; 10 μM
  percentage of MDR S. aureus stained by TriPE-NT: 80.9±1.7%
[7]; 10 μM TriPE-NT and PI
  percentage of MDR S. epidermidis co-stained by TriPE-NT and PI (dead bacteria): 74.8±11.4%
[7]; 10 μM
  percentage of MDR S. epidermidis stained by TriPE-NT: 92.9±6.6%
[8]; 10 μM TriPE-NT and PI
  percentage of S. aureus co-stained by TriPE-NT and PI (dead bacteria): 67.3±12.2%
[8]; 10 μM
  percentage of S. aureus stained by TriPE-NT: 86.1±1.9%
[9]; [13]
  morphology of E. coli: obvious rough surface and damaged cell wall
[9]; [14]
  morphology of E. coli: cell wall fragmentations
[10]; [13]
  morphology of MDR E. coli: obvious rough surface and damaged cell wall
[10]; [14]
  morphology of MDR E. coli: cell wall fragmentations
[11]
  morphology of MDR S. epidermidis: wrinkled bacterial cell wall
[12]
  morphology of S. epidermidis: wrinkled bacterial cell wall
